Data on 22 molecules can be found in patent publication US7585883B2, “Substituted pyridines and their uses” (Rigel Pharmaceuticals, Inc., priority 2004, dated 2009).

For experiment [1], the system named is cultured human mast cells (CHMC). The experiment is described as follows: CHMC low cell density ionomycin activation: tryptase assay (ionomycin-induced degranulation). Format: cell-based. Conditions: ionomycin 2 μM final, tryptase release, read-out: Iono (second symbol of IgE/Iono): IC50 of ionomycin-induced degranulation. The protocol:
(§1) To duplicate 96-well U-bottom plates (Costar 3799) add 65 ul of compound dilutions or control samples that have been prepared in MT [137 mM NaCl, 2.7 mM KCl, 1.8 mM CaCl2, 1.0 mM MgCl2, 5.6 mM Glucose, 20 mM Hepes (pH 7.4), 0.1% Bovine Serum Albumin, (Sigma A4503)] containing 2% MeOH and 1% DMSO. Pellet CHMC cells (980 rpm, 10 min) and resuspend in pre-warmed MT. Add 65 ul of cells to each 96-well plate. Depending on the degranulation activity for each particular CHMC donor, load 1000-1500 cells/well. Mix four times followed by a 1 hr incubation at 37° C. During the 1 hr incubation, prepare 6× anti-IgE solution [rabbit anti-human IgE (1 mg/ml, Bethyl Laboratories A80-109A) diluted 1:167 in MT buffer]. Stimulate cells by adding 25 ul of 6× anti-IgE solution to the appropriate plates. Add 25 ul MT to un-stimulated control wells. Mix twice following addition of the anti-IgE. Incubate at 37° C. for 30 minutes. During the 30 minute incubation, dilute the 20 mM tryptase substrate stock solution [(Z-Ala-Lys-Arg-AMC 2TFA; Enzyme Systems Products, #AMC-246)] 1:2000 in tryptase assay buffer [0.1 M Hepes (pH 7.5), 10% w/v Glycerol, 10 uM Heparin (Sigma H-4898) 0.01% NaN3]. Spin plates at 1000 rpm for 10 min to pellet cells. Transfer 25 ul of supernatant to a 96-well black bottom plate and add 100 ul of freshly diluted tryptase substrate solution to each well. Incubate plates at room temperature for 30 min. Read the optical density of the plates at 355 nm/460 nm on a spectrophotometric plate reader.
To confirm that many of the pyridine compounds of the invention exert their inhibitory activity by blocking or inhibiting the early IgE receptor signal transduction cascade, several of the compounds were tested in cellular assays for ionomycin-induced degranulation, as described below.
Assays for ionomycin-induced mast cell degranulation were carried out as described for the CHMC Low Density IgE Activation assays, supra, with the exception that during the 1 hour incubation, 6× ionomycin solution [5 mM ionomycin (Sigma I-0634) in MeOH (stock) diluted 1:416.7 in MT buffer (2 μM final)] was prepared and cells were stimulated by adding 25 μl of the 6× ionomycin solution to the appropriate plates.

For experiment [2] the test system is unchanged. The experiment can be described thus: CHMC low cell density IgE activation: tryptase assay (IgE-induced degranulation). Format: cell-based. Conditions: anti-IgE stimulation, tryptase release, read-out: IgE (first symbol of IgE/Iono): IC50 of IgE-induced degranulation. As to the method:
Inhibition of degranulation was measured at both low and high cell density by quantifying the release of the granule specific factors tryptase, histamine and hexosaminidase. Inhibition of release and/or synthesis of lipid mediators was assessed by measuring the release of leukotriene LTC4 and inhibition of release and/or synthesis of cytokines was monitored by quantifying TNF-α, IL-6 and IL-13. Tryptase and hexosaminidase were quantified using fluorogenic substrates as described in their respective examples. Histamine, TNFα, IL-6, IL-13 and LTC4 were quantified using the following commercial ELISA kits: histamine (Immunotech #2015, Beckman Coulter), TNFα (Biosource #KHC3011), IL-6 (Biosource #KMC0061), IL-13 (Biosource #KHC0132) and LTC4 (Cayman Chemical #520211). The protocols of the various assays are provided below.
7.2.7 CHMC Low Cell Density IgE Activation: Tryptase and LTC4 Assays
as §1

The structures appear in SMILES notation. A value given as a limit tells only on which side of the number the result lay.

In the case of `CC(=O)OCCS(=O)(=O)c1ccc([N+](=O)[O-])cn1` [Compound 17, 2-[(5-Nitro-2-pyridinyl)sulfonyl]ethyl acetate], the IC50 in experiment [1] and in experiment [2] was < 10 µM in each case.

`O=C(OCCS(=O)(=O)c1ccc([N+](=O)[O-])cn1)c1ccccc1` [Compound 13, 2[(5-Nitro-2-pyridinyl)sulfonyl]ethyl benzoate]: the IC50 in experiment [1] and in experiment [2] was < 10 µM in each case.

Turning to `O=C(OCCSc1ccc([N+](=O)[O-])cn1)c1cccc(Cl)c1` [Compound 5, 2-[(5-Nitro-2-pyridinyl)thio]ethyl-3-chlorobenzoate], the IC50 in experiment [1] and in experiment [2] was > 10 µM each time.

Turning to `O=C(Nc1ccccc1)Nc1ccc(S(=O)(=O)CCOC(=O)c2cccc(Cl)c2)nc1` [Compound 55, 2-[(5-{Phenylureido}-2-pyridinyl)sulfonyl]ethyl-3-chlorobenzoate], the IC50 in experiment [1] and in experiment [2] was > 10 µM in each case.

On to `O=C(NCCS(=O)(=O)c1ccc([N+](=O)[O-])cn1)c1cccc(Cl)c1` [Compound 42, 3-Chloro-N-[2-({5-nitro-2-pyridinyl}sulfonyl)ethyl]benzamide], for which the IC50 in experiment [1] and in experiment [2] was < 10 µM throughout.

In the case of `O=C(OCCS(=O)(=O)c1ccc([N+](=O)[O-])cn1)c1cccc(C(F)(F)F)c1` [Compound 11, 2-[(5-Nitro-2-pyridinyl)sulfonyl]ethyl 3-trifluoromethylbenzoate], the IC50 in experiment [1] and in experiment [2] was < 10 µM in each case.

As for `O=C(OCCS(=O)(=O)c1ccc([N+](=O)[O-])cn1)c1ccc(F)cc1` [Compound 16, 2-[(5-Nitro-2-pyridinyl)sulfonyl]ethyl 4-fluorobenzoate], the IC50 in experiment [1] and in experiment [2] was < 10 µM each time.

As to `CCNC(=O)Nc1ccc(S(=O)(=O)CCOC(=O)c2cccc(Cl)c2)nc1` [Compound 56, 2-[(5-{Ethylureido}-2-pyridinyl)sulfonyl]ethyl-3-chlorobenzoate], the IC50 in experiment [1] and in experiment [2] was > 10 µM each time.

`O=C(OCCS(=O)(=O)c1ccc([N+](=O)[O-])cn1)c1cccc(F)c1` [Compound 15, 2-[(5-Nitro-2-pyridinyl)sulfonyl]ethyl 3-fluorobenzoate]: the IC50 in experiment [1] and in experiment [2] was < 10 µM throughout.

For the molecule `O=C(OCC[S+]([O-])c1ccc([N+](=O)[O-])cn1)c1cccc(Cl)c1` (centres unmarked) [Compound 50, 2-[(5-nitro-2-pyridinyl)sulfinyl]ethyl-3-chlorobenzoate], the IC50 in experiment [1] and in experiment [2] was < 10 µM in each case.

Take `O=C(OCCS(=O)(=O)c1ccc(C(F)(F)F)cn1)c1cccc(Cl)c1` [Compound 21, 2-[(5-Trifluoromethyl-2-pyridinyl)-2-sulfonyl]ethyl 3-chlorobenzoate]: the IC50 in experiment [1] and in experiment [2] was < 10 µM each time.

Consider `O=C(OCCS(=O)(=O)c1ccc(N2C(=O)c3ccccc3C2=O)cn1)c1cccc(Cl)c1` [Compound 66, [(5-{1,3-Dihydro-1,3-dioxo-2H-isoindol-2-yl}-2-pyridinyl)sulfonyl]ethyl 3-chlorobenzoate], for which the IC50 in experiment [1] and in experiment [2] was < 10 µM each time.

Consider `O=C(Nc1ccc(OC(F)(F)F)cc1)Nc1ccc(S(=O)(=O)CCOC(=O)c2cccc(Cl)c2)nc1` [Compound 57, 2-[(5-{4-Trifluoromethoxyphenylureido}-2-pyridinyl)sulfonyl]ethyl-3-chlorobenzoate], for which the IC50 in experiment [1] and in experiment [2] was < 10 µM in each case.

`CCC(=O)OCCS(=O)(=O)c1ccc([N+](=O)[O-])cn1` [Compound 18, 2-[(5-Nitro-2-pyridinyl)sulfonyl]ethyl propionate]: the IC50 in experiment [1] and in experiment [2] was < 10 µM each time.

Turning to `O=C(OCCS(=O)(=O)c1ccc([N+](=O)[O-])cn1)c1cccc(OC(F)(F)F)c1` [Compound 19, 2-[(5-Nitro-2-pyridinyl)sulfonyl]ethyl 3-trifluoromethoxybenzoate], the IC50 in experiment [1] and in experiment [2] was < 10 µM each time.

As for `O=C(OCCS(=O)(=O)c1ccc([N+](=O)[O-])cn1)c1ccccc1C(F)(F)F` [Compound 12, 2-[(5-Nitro-2-pyridinyl)sulfonyl]ethyl-2-trifluoromethylbenzoate], the IC50 in experiment [1] and in experiment [2] was < 10 µM throughout.

In the case of `O=C(OCCS(=O)(=O)c1ccc([N+](=O)[O-])cn1)c1cccc(Cl)c1` [Compound 6, 2-[(5-Nitro-2-pyridinyl)sulfonyl]ethyl 3-chlorobenzoate], the IC50 in experiment [1] and in experiment [2] was < 10 µM each time.

Consider `O=C(OCCS(=O)(=O)c1ccc(N2C(=O)CCC2=O)cn1)c1cccc(Cl)c1` [Compound 67, [(5-{2,5-Dioxotetrahydro-1H-pyrrol-1-yl}-2-pyridinyl)sulfonyl]ethyl 3-chlorobenzoate], for which the IC50 in experiment [1] and in experiment [2] was > 10 µM in each case.

Turning to `CC(C)(C)OC(=O)NCCS(=O)(=O)c1ccc([N+](=O)[O-])cn1` [Compound 41, 2-[(2-{N-tert-Butoxycarbonylamino}ethyl)sulfonyl]-5-nitropyridine], the IC50 in experiment [1] and in experiment [2] was < 10 µM each time.

For `CC(=O)NCCS(=O)(=O)c1ccc([N+](=O)[O-])cn1` [Compound 40], the IC50 in experiment [1] and in experiment [2] was < 10 µM each time.

As to `O=C(OCCS(=O)(=O)c1ccc([N+](=O)[O-])cn1)c1ccc(Cl)cc1` [Compound 9, 2-[(5-Nitro-2-pyridinyl)sulfonyl]ethyl 4-chlorobenzoate], the IC50 in experiment [1] and in experiment [2] was < 10 µM each time.

As for `O=C(OCCS(=O)(=O)c1ccc([N+](=O)[O-])cn1)c1ccccc1F` [Compound 14, 2-[(5-Nitro-2-pyridinyl)sulfonyl]ethyl 2-fluorobenzoate], the IC50 in experiment [1] and in experiment [2] was < 10 µM throughout.
